According to US7288573B2, “Method of repelling insects” (priority 2001, dated 2007):
Values joined by “and” are separate entries in the source; they are usually repeats but may differ in a detail not shown here. Identical values can stand only once.

Key:
Culex spp. = assay: Mosquito repellency of 2-undecanone and 2-tridecanone, treated arm in cage (Example 6); type: in vivo; conditions: for No. landings: single replicates; for observed repellent / residual activity (words): observed up to 24 hours post-treatment
From the text: Cages. The same two mosquitoes cages described in Example 5 were used for this example. The cages were constructed using wood framing and fine mesh wire screen. The dimensions of each cage were 59 cm high×55 cm wide by 59 cm deep. A hinged access door was installed at the front of each chamber for insertion of the water-filled containers filled with mosquito pupae. Also present at the front of each chamber was a 9 cm diameter plastic tube (i.d.) for insertion of the arm of the investigator. The arm insertion tube was sealed with a rubber stopper when not in use.
Mosquitoes and Mosquito Rearing. Mosquitoes (Culex spp.) were obtained (as pupae and larvae) from Carolina Biological Supply Co., Burlington, N.C., USA in two successive shipments, so as to provide a continuing long term supply of fresh insects. Following their arrival, the mosquitoes were divided into approximately equal numbers in multiple water-filled containers and placed in the two cages described above. The larval and pupal cultures were fed with insect rearing compound. In addition, the water was changed regularly by filtration to minimize contamination and prevent overcrowding. Continuous culturing made it possible to increase the mosquito numbers to more than 100 insects per cage.
Test Compounds and Testing Schedule. Testing was done with two compounds, 2-undecanone, and 2-tridecanone, for repellent activity by treating one arm of the investigator with approximately 1 ml of the test solution. Following several minutes for solvent evaporation, the treated arm was inserted through the insertion tube for 5 minutes. The other arm was treated with isoprbpanol (control) or a different concentration of the compound, and inserted into the insertion tube of the adjacent chamber. Next, the behavior of the mosquitoes in response to the presence of the investigator's arms was noted. Mosquito behavior was recorded as 1) landing or attempting to land on the investigator's arm, or coming to rest on the wire screen immediately adjacent to the investigator's arm or hand, versus 2) dispersal away from the treated arm towards the opposite ends of the cage. The approximate number of mosquitoes present at the beginning of the observations was noted. For treatments with 2-undecanone, observations were made initially to confirm 100% repellent activity of the compound immediately after treatment but observations were not recorded. Recording of efficacy was delayed until 6 hours after treatment, and then repeated at 12 and 24 hours post-treatment. For treatment with 2-tridecanone, the observations commenced immediately after solvent drying; then, the observations were repeated (without re-treatment of the investigator's hand and arm) after 6 hours, 12 hours and 24 hours. Treatments were alternated between the different cages. […]
2-tridecanone was obtained as a solid. To prepare this compound for testing, it was subjected to gentle heating in a 37° C. water bath to liquefy it, and aliquots of the stock were diluted volume: volume with isopropanol to 50% concentration and 20% concentration. Sufficient pure compound was retained for direct application (undiluted).
Tests were done at concentrations of 100%, 50%, and 20% for each of the two compounds, as well as 20% DEET, and the isopropanol control.
Table 3 presents the efficacy found at the different time intervals for each of the compounds at the three different concentrations and for DEET. Efficacy was calculated according to the formula: [(no. landings/no. present in control)−(no. landings/no. present in experinental) divided by (no. landings/no. present in control)]×100.

Aedes albopictus = assay: One-minute biting counts on treated forearm (Example 7); type: in vivo; conditions: 20% formulations; post-treatment time intervals
Description: This experiment was performed to evaluate the comparative repellency of 5% and 20% 2-undecanone in ethanol, 20% 2-tridecanone in isopropanol and Off!™ 14.25% DEET Insect Repellent aerosol against Aedes albopictus (Asian tiger mosquitoes) and Culex quinquefasciatus (southern house mosquitoes).
Three to four-day-old laboratory-reared female Ae. albopictus and Cx. quinquefasciatus were transferred by aspiration into eight cages measuring 10 inches high×10 inches wide×13 inches deep at a targeted stocking rate of 100 and 200, respectively. Four cages contained Ae. albopictus and four contained Cx. quinquefasciatus. A greater number of Cx. quinquefasciatus was used to compensate for lower biting activity anticipated for this species. The actual number of females per cage was lower than the target-stocking rate because of the high number of males that were inadvertently introduced into the cages. Each cage contained a screened back wall, clear Plexiglas top, stockinette entry sleeve and solid aluminum floor and sidewalls. The mosquitoes were fed water and sugar water prior to and between tests. The tests were conducted over four days, Aug. 7-10, 2001, with four men participating as testers. All testers washed both arms with a non-fragrance soap, rinsed and swabbed with 25% ethanol prior to applying treatments. Treatments were applied to the forearm in a region extending from the wrist to a point measured at 12″ back from the tip of the index finger on both arms. The 20% 2-tridecanone was not applied as uniformly as the other repellents because an insufficient quantity was available. Latex gloves were worn over the hands and replaced before each biting count. The control consisted of a soap wash, rinse and 25% ethanol swab and was conducted by the same person throughout the study. One-minute biting counts were recorded at 0, 1, 2, 4 & 6 hours post-treatment time intervals. All treatments were randomly assigned to each tester, two treatments per tester. Cage placement was also randomized at the beginning of each day of testing. Testers were rotated each day so that by the end of the study they had occupied each cage location. Each repellent was tested two times by three testers so that mean biting counts were based on six observations. A Hobo datalogger was used to monitor temperature and humidity throughout the study.
A balanced incomplete block design following American Society for Testing and Materials standards E 939-94 was employed. Data were normalized by square root transformation and submitted to analysis of variance and mean separation procedures via SS PC. Microsoft Excel 2000 pivot tables and charting functions were used to plot mean biting counts and standard errors by species and time interval for each treatment and control. Mean biting counts were transformed to percent protection or repellency by the following formula: Control−Treatment/Control×100.

[1] = 20% concentration, 0 hours after treatment
[2] = 20% concentration, 6 hours after treatment
[3] = 20% concentration, 12 hours after treatment
[4] = 20% concentration, 24 hours after treatment
[5] = 50% concentration, 0 hours after treatment
[6] = 50% concentration, 6 hours after treatment
[7] = 50% concentration, 12 hours after treatment
[8] = 50% concentration, 24 hours after treatment
[9] = 100% concentration, 0 hours after treatment
[10] = 100% concentration, 6 hours after treatment
[11] = 100% concentration, 12 hours after treatment
[12] = 100% concentration, 24 hours after treatment

CCCCCCCCCCCC(C)=O [2-tridecanone]
Percent Efficacy Post-Treatment (Culex spp.; 20% concentration, 0 hours): 1.5%^ | No. landings, Mean (Culex spp.; [1]): 4.0 | Percent = [(No. landings/No. present)] × 100 (Culex spp.; [1]): 14.4% | No. landings (Culex spp.; [1]): 4 and 3 and 5 | Percent Efficacy Post-Treatment (Culex spp.; 20% concentration, 6 hours): 0% | No. landings, Mean (Culex spp.; [2]): 4.7 | Percent = [(No. landings/No. present)] × 100 (Culex spp.; [2]): 14.0% | No. landings (Culex spp.; [2]): 3 and 4 and 7 | Percent Efficacy Post-Treatment (Culex spp.; 20% concentration, 12 hours): 22.2% | No. landings, Mean (Culex spp.; [3]): 4.7 | Percent = [(No. landings/No. present)] × 100 (Culex spp.; [3]): 13.0% | No. landings (Culex spp.; [3]): 3 and 5 and 6 | Percent Efficacy Post-Treatment (Culex spp.; 20% concentration, 24 hours): 0% | No. landings, Mean (Culex spp.; [4]): 5.7 | Percent = [(No. landings/No. present)] × 100 (Culex spp.; [4]): 14.9% | No. landings (Culex spp.; [4]): 5 and 6 (2×) | observed repellent / residual activity (words) (Culex spp.; 20% concentration): repellant activity was not observed | observed repellent / residual activity (words) (Culex spp.; 20% concentration, listed as 2-Tridecanone): Comments: No residual repellent activity was observed. | Percent Efficacy Post-Treatment (Culex spp.; 50% concentration, 0 hours): 95.2% | No. landings, Mean (Culex spp.; [5]): 0.7 | Percent = [(No. landings/No. present)] × 100 (Culex spp.; [5]): 0.7% | Percent = [(No. landings/No. present)] × 100 (Culex spp.; 50% concentration, 0 hours after treatment, listed as 2-Tridecanone): 2.4% | No. landings (Culex spp.; [5]): 0 and 1 (2×) | Percent Efficacy Post-Treatment (Culex spp.; 50% concentration, 6 hours): 67.7% | No. landings, Mean (Culex spp.; [6]): 1.3 | Percent = [(No. landings/No. present)] × 100 (Culex spp.; [6]): 4.3% | Percent = [(No. landings/No. present)] × 100 (Culex spp.; 50% concentration, 6 hours after treatment, listed as 2-Tridecanone): 4.3% | No. landings (Culex spp.; [6]): 3 and 0 and 1 | Percent Efficacy Post-Treatment (Culex spp.; 50% concentration, 12 hours): 0% | No. landings, Mean (Culex spp.; [7]): 5.7 | Percent = [(No. landings/No. present)] × 100 (Culex spp.; [7]): 19.7% | No. landings (Culex spp.; [7]): 7 and 4 and 6 | Percent Efficacy Post-Treatment (Culex spp.; 50% concentration, 24 hours): 0% | No. landings, Mean (Culex spp.; [8]): 5.0 | Percent = [(No. landings/No. present)] × 100 (Culex spp.; [8]): 18.7% | No. landings (Culex spp.; [8]): 7 and 4 (2×) | observed repellent / residual activity (words) (Culex spp.; 50% concentration): activity greatly diminished or was absent after 12 and 24 hours. | Percent Efficacy Post-Treatment (Culex spp.; 100% concentration, 0 hours): 87.7% | No. landings, Mean (Culex spp.; [9]): 1.3 | Percent = [(No. landings/No. present)] × 100 (Culex spp.; [9]): 1.8% | Percent = [(No. landings/No. present)] × 100 (Culex spp.; 100% concentration, 0 hours after treatment, listed as 2-Tridecanone): 1.8% | No. landings (Culex spp.; [9]): 0 and 1 and 3 | Percent Efficacy Post-Treatment (Culex spp.; 100% concentration, 6 hours): 18.1% | No. landings, Mean (Culex spp.; [10]): 9.7 | Percent = [(No. landings/No. present)] × 100 (Culex spp.; [10]): 10.9% | No. landings (Culex spp.; [10]): 9 and 10 (2×) | Percent Efficacy Post-Treatment (Culex spp.; 100% concentration, 12 hours): 41.9% | No. landings, Mean (Culex spp.; [11]): 10.3 | Percent = [(No. landings/No. present)] × 100 (Culex spp.; [11]): 9.7% | No. landings (Culex spp.; [11]): 16 and 7 and 8 | Percent Efficacy Post-Treatment (Culex spp.; 100% concentration, 24 hours): 0% | No. landings, Mean (Culex spp.; [12]): 15.0 | Percent = [(No. landings/No. present)] × 100 (Culex spp.; [12]): 13.3% | No. landings (Culex spp.; [12]): 17 and 15 and 13 | observed repellent / residual activity (words) (Culex spp.; 100% concentration): Comments: The compound was highly repellent. A huge cloud of mosquitoes retreated | overall repellent activity, comparison of the two compounds (Culex spp.; 100%, 50% and 20% concentrations, 0 to 24 hours): less effective as a repellent against mosquitoes than 2-undecanone | repellency (Aedes albopictus): low repellency
